Assay results published in patent US20160320368A1, “METHOD AND APPARATUS FOR PREDICTING EFFECTIVE DOSE OR SENSITIVITY OF 5-HYDROXY-1H-IMIDAZOLE-4-CARBOXAMIDE, METHOD FOR DETERMINING AMOUNT OF XANTHOSINE MONOPHOSPHATE, AND TREATMENT AGENT AND METHOD FOR TREATING MYELODYSPLASTIC SYNDROME” (FUJIFILM Corporation, priority 2014, published 2016).

System: XMP in blood cells of healthy human
Assay: XMP in blood cells of healthy human (hemolysis, Example 4)
Type: cell-based
Settings: 37° C., 8 hours, non-treated = 100%
Method: A ¾ hydrate of Compound A was used as a test compound.
450 μL of the blood collected from two healthy individuals by heparinized blood collection (Analyte A and Analyte B) was added to each of 1.5 mL tubes, and 50 μL of a PBS solution of the test compound (0 μg/mL, 10 μg/mL, 30 μg/mL, 100 μg/mL, 300 μg/mL, or 1000 μg/mL in terms of Compound A) for each concentration was added to each tube. The reaction mixture was stirred in an incubator at 37° C. for 8 hours. Then, BD Pharm Lyse (555899, manufactured by Becton, Dickinson and Company, Inc.) was added to the blood (2 mL of BD Pharm Lyse was added relative to 0.2 mL of blood). After stirring with a vortex mixer, the reaction solution was protected from light and allowed to stand at room temperature for 15 min. After centrifugation at 20° C. and 1000×g for 5 min, the supernatant was removed and suspended in 10 mL of a PBS solution. After centrifugation at 4° C. and 1000×g for 5 min, the supernatant was removed, and 1000 μL of methanol was added to each tube, followed by stirring. Thereafter, 500 μL of ultrapure water was added thereto, followed by further stirring. 600 μL of the reaction solution was divided into each of two tubes, and 400 μL of chloroform was added to each tube. The reaction solution was stirred and then centrifuged at 4° C. and 10000×g for 15 min. 400 μL of the aqueous phase was recovered and added to an ultrafiltration tube, followed by centrifugation at 12° C. and 9200×g for 2 hours. The filtrates were combined and then dried under reduced pressure at 40° C. for 2 hours by using a centrifugal evaporator. After drying, the resulting product was stored in a freezer at −80° C.
The samples stored in (1) and (2) were returned to room temperature and 40 μL of ultrapure water was added to each sample. The mixture was stirred and centrifuged at 4° C. and 21500×g for 5 min. 35 μL of the supernatant was transferred to a vial. After storage at 4° C., XMP in samples was determined in the LC-MS/MS determination instrument, LC conditions and MS/MS conditions described in Example 3 (3).
Amounts of XMP (%) were calculated assuming that the XMP value of a non-Compound A treated group (peak area value) is defined as 100%.

NC(=O)c1nc[nH]c1O [Compound A, 5-Hydroxy-1H-imidazole-4-carboxamide]
Amount of XMP (%) Analyte A (Compound A 1 μg/mL): 60% | Amount of XMP (%) Analyte B (Compound A 1 μg/mL): 51% | Amount of XMP (%) Analyte A (Compound A 3 μg/mL): 45% | Amount of XMP (%) Analyte B (Compound A 3 μg/mL): 37% | Amount of XMP (%) Analyte A (Compound A 10 μg/mL): 37% | Amount of XMP (%) Analyte B (Compound A 10 μg/mL): 25% | Amount of XMP (%) Analyte A (Compound A 30 μg/mL): 27% | Amount of XMP (%) Analyte B (Compound A 30 μg/mL): 18% | Amount of XMP (%) Analyte A (Compound A 100 μg/mL): 16% | Amount of XMP (%) Analyte B (Compound A 100 μg/mL): 10%
